In US6906042B2, “Micelles” (Eisai Co., Ltd., priority 2000, dated 2005):
Where “and” joins values, the source holds several entries; their conditions need not be identical. Identical values can stand only once.

Tests used:
[1] = Micelle hydrodynamic diameter of E5564 before lyophilization and after reconstitution, admixture and storage
Source text: After lyophilization the micelles were reconstituted with water diluted in an aqueous dextrose solution (Table 2). […] (Table 2).

[2] = E5564 micelle hydrodynamic diameter before and after simulated I.V. infusion using administration equipment (DLS); conditions: simulated administration conditions using representative infusion equipment
Source text: The following conditions apply to the data in Table 4: Microbore 60″ extension set with PVC free fluid path, No. V6212 (McGraw, Inc.); 3 cc syringe with Luer Lok, No. 309585 (Becton Dickenson); Injection site with Luer Lok, No. 2N1199 (Baxter); Needle, 20G 1, No. 305175 (Becton Dickenson); I.V. catheter, JELCO, No. 4050 (Johnson & Johnson Medical Inc.).

[3] = Micelle hydrodynamic diameter of E5564 through NaOH dissolution, lactose phosphate buffer, freeze-drying and re-hydration; conditions: upon freeze-drying
Source text: This solution was then combined with a lactose containing phosphate buffer solution to yield a solution pH of 7-8. […] This solution was then filtered through a 0.2 μm filter to render the solution sterile in the manner conventional to pharmaceutical manufacturing. The sterile solution was then filled into vials and freeze-dried.

For CCCCCC/C=C\CCCCCCCCCC(=O)N[C@H]1[C@H](OC[C@H]2O[C@H](OP(=O)(O)O)[C@H](NC(=O)CC(=O)CCCCCCCCCCC)[C@@H](OCCCCCCCCCC)[C@@H]2O)OC(COC)[C@@H](OP(=O)(O)O)[C@@H]1OCC[C@@H](CCCCCCC)OC (stereo partly shown) [Compound E5564], which “micelle hydrodynamic diameter stability” value ([1]; […], or under refrigeration) is on record?
The value was “stable”.

And the “hydrodynamic diameter (nm)” value ([1]; admixed with 5% dextrose solution (0.14 mg/mL), storage for 24 hours at 25° C.)?
Its value is 8.1 nm.

What about the “hydrodynamic diameter (nm)” value ([1]; admixed with 5% dextrose solution (0.14 mg/mL), storage for 72 hours at 2-8° C.) of the same compound?
Its value is 7.7 nm.

What about the “hydrodynamic diameter (nm)” value ([1]; immediately following admixture with 5% dextrose solution (0.14 mg/mL)) of the same compound?
The value was 7.7 nm and 6.8 nm.

What about the “hydrodynamic diameter (nm)” value ([1]; immediately following reconstitution (0.5 mg/mL)) of the same compound?
Its value is 8.6 nm and 7.7 nm and 6.9 nm.

What about the “hydrodynamic diameter (nm)” value ([1]; reconstituted solution (0.5 mg/mL), storage for 24 hours at 25° C.) of the same compound?
The value was 8.2 nm.

What about the “hydrodynamic diameter (nm)” value ([1]; reconstituted solution (0.5 mg/mL), storage for 72 hours at 2-8° C.) of the same compound?
The value was 8.3 nm.

What about the “hydrodynamic diameter (nm)” value ([1]; reconstituted solution after storage of lyophilized drug product 6 months at 2-8° C.) of the same compound?
Its value is 7.5 nm.

And the “hydrodynamic diameter (nm)” value ([1]; reconstituted solution after storage of lyophilized drug product 6 months at 25° C./60% RH)?
Its value is 7.3 nm and 7.2 nm.

And the “hydrodynamic diameter (nm)” value ([1]; reconstituted solution, lyophilized drug product, initial)?
Its value is 8.6 nm and 7.7 nm and 6.9 nm.

What about the “hydrodynamic diameter (nm)” value ([1]; solutions prior to lyophilization) of the same compound?
The value was 7.6 nm and 7.4 nm and 7.9 nm.

And the “micelle hydrodynamic diameter stability” value [2]?
Its value is “stable”.

And the “micelle hydrodynamic diameter stability” value [3]?
The value was “stable”.
